# Test results: US10919902B2, “Hetero-halo inhibitors of histone deacetylase” (Alkermes, Inc., priority 2015, dated 2021)
# Tested on: SH-SY5Y cells
# Test: Cell assay: SH-SY5Y cells, HDAC-Glo 2 reagent
# Type: cell-based
# Conditions: Homo sapiens, 5 h incubation, CI-994 at 100 uM = 100% inhibition
# Experimental: SH-SY5Y cells (Sigma) were cultured in Eagle's Modified Essential Medium supplemented with 10% fetal bovine serum and pen/strep. Twenty-four hours prior to compound dosing 20 uL of cells were plated in white 384 well plates at a density of 1,500 cells/well. Compounds were serially diluted in neat DMSO and then diluted 1:100 v/v into media without FBS and mixed. Media was removed from the plated cells and the diluted compounds in serum free media (1% v/v final DMSO) were added and incubated at 37° C. for five hours. Ten uL of HDAC-Glo 2 reagent with 0.1% Triton X-100 was then added, the plate was mixed and allowed to develop at room temperature for 100 minutes. Plates were then read with a Spectramax LMax luminometer employing a 0.4 s integration time. Dose response curves were constructed with normalized data where CI-994 at 100 uM was defined as 100% inhibition and DMSO alone as 0% inhibition.
row,SMILES,EC50 [nM]
1,CN1CCC(N2C[C@@H]3C(C(=O)Nc4nc(-c5ccc(F)cc5)ccc4N)[C@@H]3C2)CC1 (stereo partly shown) [Compound 263],500 to 5000

# Biological target: recombinant human HDACs (Homo sapiens)
# Test: HDAC enzymatic assay
# Type: biochemical
# Conditions: 5 nM HDAC enzyme, 5 h pre-incubation, 17 h reaction at 25° C.; isoform not given; read-out: IC50
# Experimental: All recombinant human HDACs were purchased from BPS Bioscience. The substrate, FAM-TSRHK(AC)KL-CONH, was synthesized at NanoSyn. Final assay reactions contained 100 mM HEPES (pH 7.5), 50 mM KCl, 0.1% BSA, 0.01% Triton X-100, 1% DMSO, 1 uM substrate and 5 nM HDAC enzyme. Enzyme and compounds were pre-incubated at 25° C. for 5 hours and reactions were initiated by addition of substrate. 10 uL reactions were incubated for 17 hours at 25° C. and terminated by the addition of 40 uL of buffer containing 100 mM HEPES (pH 7.5), 0.1% BSA, 0.01% Triton X-100 and 0.05% SDS. Substrate and product peptides present in each sample were separated electrophoretically using the LabChip 3000 capillary electrophoresis instrument. Change in the relative fluorescence intensity of the substrate and product peaks reflects enzyme activity. Reaction progress was determined as the product to sum ratio (PSR):P/(S+P), where P is the peak height of the product peptide and S is the peak height of the substrate peptide. Reactions were performed in duplicate at 12 concentrations, (3× serial dilutions starting at 30 uM). IC50 values were calculated using a 4 Parameter Logistic Model.
row,SMILES,IC50 [nM]
1,CN1CCC(N2C[C@@H]3C(C(=O)Nc4nc(-c5ccc(F)cc5)ccc4N)[C@@H]3C2)CC1 (stereo partly shown) [Compound 263],500 to 5000
2,Nc1ccc(-n2cccn2)nc1NC(=O)C1CCN(Cc2ccccc2F)CC1 [Compound 370],> 5000
3,CN(C)Cc1ccc2c(c1)CN(C(=O)Nc1nc(-c3ccc(F)cc3)ccc1N)C2 [Compound 371],100 to 500
4,Nc1ccc(-c2ccco2)nc1NC(=O)N1Cc2ccncc2C1 [Compound 372],500 to 5000
5,Nc1ccc(-c2ccc(F)cc2)nc1NC(=O)N1Cc2ccncc2C1 [Compound 373],100 to 500
6,CN1CCN(c2ccc3c(c2)CN(C(=O)Nc2nc(-c4ccc(F)cc4)ccc2N)C3)CC1 [Compound 374],100 to 500
7,CN1CCC(COC(=O)Nc2nc(-c3cccnc3)ccc2N)CC1 [Compound 375],> 5000
8,CN1CC(CC(=O)Nc2nc(-c3ccc(F)cc3)ccc2N)C1 [Compound 376],> 5000
9,Nc1ccc(-c2ccccc2)nc1NC(=O)C1CCN(Cc2cccnc2)CC1 [Compound 377],> 5000
10,Nc1ccc(-c2cccnc2)nc1NC(=O)C1CCN(Cc2ccccc2F)CC1 [Compound 378],> 5000
11,Nc1ccc(-c2ccccc2)nc1NC(=O)C1CCN(Cc2ccccc2F)CC1 [Compound 379],> 5000
12,CC(=O)N1CCC(C(=O)Nc2nc(-c3ccccc3)ccc2N)CC1 [Compound 380],> 5000
13,Nc1ccc(-c2ccccc2)nc1NC(=O)C1CCN(C2COC2)CC1 [Compound 381],> 5000
14,Nc1cn(-c2ccccc2)nc1NC(=O)N1CC2COCC2C1 (stereo not shown) [Compound 382],> 5000
15,CN1CCC(c2ccc3c(c2)CN(C(=O)Nc2nn(-c4ccccc4)cc2N)C3)CC1 [Compound 383],100 to 500
16,Nc1cn(-c2ccccc2)nc1NC(=O)N1CC2CCCC2C1 (stereo not shown) [Compound 384],> 5000
17,Nc1ccc(-c2ccc(F)cc2)nc1NC(=O)N1CC2CCCC2C1 (stereo not shown) [Compound 385],500 to 5000
18,Nc1ccc(-c2ccc(F)cc2)nc1NC(=O)N1Cc2ccc(CN3CCC(F)(F)C3)cc2C1 [Compound 386],100 to 500

row,SMILES,IC50 [nM]
1,CN1CCC(c2ccc3c(c2)CN(C(=O)Nc2nc(-c4ccc(F)cc4)ccc2N)C3)CC1 [Compound 387],500 to 5000
2,COC1CCN(C(=O)Nc2nc(-c3ccc(F)cc3)ccc2N)C1 (stereo not shown) [Compound 388],500 to 5000
3,COCC1CCN(C(=O)Nc2nc(-c3ccc(F)cc3)ccc2N)C1 (stereo not shown) [Compound 389],> 5000
4,Nc1ccc(-c2ccc(F)cc2)nc1NC(=O)N1CCC(C(F)(F)F)C1 (stereo not shown) [Compound 390],500 to 5000
5,CN1CCN(c2ccc3c(n2)CN(C(=O)Nc2nc(-c4ccc(F)cc4)ccc2N)C3)CC1 [Compound 391],100 to 500
6,Nc1ccc(-c2ccc(F)cc2)nc1NC(=O)N1CC2COCC2C1 (stereo not shown) [Compound 392],500 to 5000
7,COCc1ccc2c(c1)CN(C(=O)Nc1nc(-c3cccnc3)ccc1N)C2 [Compound 393],500 to 5000
8,CC(O)c1ccc2c(c1)CN(C(=O)Nc1nc(-c3ccc(F)cc3)ccc1N)C2 (stereo not shown) [Compound 394],100 to 500
9,Nc1ccc(-c2cccnc2)nc1NC(=O)N1Cc2ccc(CO)cc2C1 [Compound 395],> 5000
10,COCc1ccc2c(c1)CN(C(=O)Nc1nc(-c3ccc(F)cc3)ccc1N)C2 [Compound 396],100 to 500
11,Nc1ccc(-c2ccc(F)cc2)nc1NC(=O)N1Cc2cccnc2C1 [Compound 397],100 to 500
12,CN(C)Cc1ccc2c(c1)CN(C(=O)Nc1nc(-c3ccc(Cl)s3)ccc1N)C2 [Compound 401],> 5000
13,Nc1ccc(-c2ccc(F)cc2)nc1NC(=O)N1Cc2ccc(CN3CCCC3)cc2C1 [Compound 405],100 to 500
14,Nc1ccc(-c2ccc(F)cc2)nc1NC(=O)N1CC2CCC(C1)O2 [Compound 406],> 5000
15,Nc1cn(-c2ccccc2)nc1NC(=O)N1CCC2(CCOCC2)C1 [Compound 407],> 5000
16,Nc1ccc(-c2ccc(F)cc2)nc1NC(=O)N1Cc2ccc(CN3CCC(C(F)(F)F)C3)cc2C1 (stereo not shown) [Compound 408],100 to 500
17,CN(C)Cc1ccc2c(c1)CN(C(=O)Nc1nc(-c3cccs3)ccc1N)C2 [Compound 409],100 to 500
18,Nc1ccc(-c2cccs2)nc1NC(=O)N1Cc2ccc(CN3CCCC3)cc2C1 [Compound 410],100 to 500
